Measured values: patent publication US20180104059A1, “Delivery of Therapy to Living Tissue” (President and Fellows of Harvard College, priority 2015, published 2018)

What was measured:
[1] = tested on: canine model of myocardial infarction; conditions: ONO1301 alone or in combination with a VRD; cited from earlier work
[2] = in vivo; cited from earlier work
[3] = Delivery of fluorescently tagged protein via thericardium port versus intraperitoneal, fluorescence at target site; format: in vivo, rat; conditions: after three hours
Text: A bovine serum albumin solution tagged with a fluorescent molecule (Vivotag 800) was delivered via the port 18. […] The bioluminescence from the dose is shown for intraperitoneal delivery (at left) and for direct delivery via the thericardium 10 is shown in FIG. 28.

## O=C(O)COc1cccc2c1CCC=C2CCO/N=C(\c1ccccc1)c1cccnc1 [ONO1301]
[1]
  HGF, VEGF and SDF-1 in the myocardium: upregulation
  myocardial vascularization: increase in myocardial vascularization

## CC(C)NCC(O)COc1ccc(CC(N)=O)cc1 (centres unmarked) [atenolol]
[2]
  efficacy with intrapericardial delivery compared to IV administration: improved the efficacy

## bovine serum albumin: bovine serum albumin solution tagged with a fluorescent molecule (Vivotag 800), model protein
[3]; delivered via the port
  protein at the target site (fluorescence): sustained concentration
[3]; same amount injected intraperitoneally
  protein at the target site (fluorescence): undetectable quantity
